Measured values taken from patent publication US11084814B2, “Pyrido[3, 4-d]pyrimidine derivative and pharmaceutically acceptable salt thereof” (Teijin Pharma Limited, priority 2016, dated 2021).
pIC50: −log10 of the molar value.

Key:
CDK4/cyclin D3 = target: T1, CDK4/cyclin D3 (Homo sapiens, UniProt P11802); assay: Human CDK4/cyclin D3 inhibitory activity (QS S Assist CDK4/Cyclin D3_FP Kit, IMAP fluorescent polarization); format: biochemical; settings: read-out: CDK4 Activity symbol
T1 construct: purchased Carna Biosciences, Inc. QS S Assist CDK4/Cyclin D3_FP Kit
Procedure, shortened: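 Kinase reactions used kit CDK4/cyclin D3 at 12.5–25 ng/well with the kit ATP/substrate/metal mix in 20 mM HEPES (pH 7.4), 0.01% Tween20 and 2 mM DTT, run 45 min at room temperature. Phosphorylation was detected by IMAP fluorescence polarization (ex 485/em 535 nm) after 30 min binding in the dark. IC50 was fitted from percent inhibition against DMSO controls with and without enzyme.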

CDK2/cyclin A2 = target: T2, CDK2/cyclin A2 (Homo sapiens, UniProt P24941); assay: Human CDK2/cyclin A2 inhibitory activity (QS S Assist CDK2/Cyclin A2_FP Kit, IMAP fluorescent polarization); format: biochemical; settings: read-out: CDK2 Activity symbol
T2 construct: purchased Carna Biosciences, Inc. QS S Assist CDK2/Cyclin A2_FP Kit
Procedure, shortened: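 Kit CDK2/cyclin A2 (2.5 ng/well) was reacted with kit ATP/substrate/metal in 20 mM HEPES pH 7.4, 0.01% Tween 20 and 2 mM DTT for 60 min at room temperature. IMAP binding reagent was added for 30 min, then fluorescence polarization was read at 485/535 nm. IC50 came from dose-response fitting of percent inhibition.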

T1 sequence (P11802 whole entry): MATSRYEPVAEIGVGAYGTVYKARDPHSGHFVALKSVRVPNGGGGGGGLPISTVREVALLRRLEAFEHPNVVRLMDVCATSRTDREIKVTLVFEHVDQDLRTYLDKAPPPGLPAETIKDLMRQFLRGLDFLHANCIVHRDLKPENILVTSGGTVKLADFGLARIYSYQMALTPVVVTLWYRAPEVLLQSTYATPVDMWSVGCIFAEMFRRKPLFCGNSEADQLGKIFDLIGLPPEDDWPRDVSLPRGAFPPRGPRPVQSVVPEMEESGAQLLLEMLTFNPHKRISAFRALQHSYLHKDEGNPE
T1 sequence (P30281 whole entry partner): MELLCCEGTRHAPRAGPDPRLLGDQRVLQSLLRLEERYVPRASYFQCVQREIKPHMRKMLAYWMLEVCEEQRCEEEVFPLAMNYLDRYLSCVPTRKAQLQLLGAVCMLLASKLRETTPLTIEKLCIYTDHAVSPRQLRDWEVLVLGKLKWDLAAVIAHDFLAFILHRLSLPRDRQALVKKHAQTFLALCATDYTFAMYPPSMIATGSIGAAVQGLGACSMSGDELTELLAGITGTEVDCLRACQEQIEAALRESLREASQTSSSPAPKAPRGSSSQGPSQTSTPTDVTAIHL

Row | pIC50 (CDK4/cyclin D3) | pIC50 (CDK2/cyclin A2) | Compound
1 | > 8.00 | ≤ 7.00 | OCCN1CCN(Cc2ccc(Nc3ncc4cc(C(F)F)nc(N5CCC(O)CC5)c4n3)nc2)CC1 [Compound 129]
2 | 7.00 to 8.00 | ≤ 7.00 | C[C@@H](O)c1cc2cnc(Nc3ccc(CN4CCN(C)CC4)cn3)nc2c(N2CC(F)(F)C2)n1 [Compound 133]
3 | > 8.00 | ≤ 7.00 | CC(O)c1cc2cnc(Nc3ccc(CN4CCN(C)CC4)cn3)nc2c(N2CCCC2C)n1 (centres unmarked) [Compound 136]
4 | 7.00 to 8.00 | ≤ 7.00 | C[C@@H](O)c1cc2cnc(Nc3ccc(CN4CCN(C)CC4)cn3)nc2c(N2CCC[C@@H]2C)n1 [Compound 137]
5 | > 8.00 | ≤ 7.00 | C[C@@H]1CCN(c2nc([C@@H](C)O)cc3cnc(Nc4ccc(CN5CCN(C)CC5)cn4)nc23)C1 [Compound 138]
6 | > 8.00 | ≤ 7.00 | C[C@H]1CCN(c2nc([C@@H](C)O)cc3cnc(Nc4ccc(CN5CCN(C)CC5)cn4)nc23)C1 [Compound 139]
7 | > 8.00 | ≤ 7.00 | CC1CCC(C)N1c1nc([C@@H](C)O)cc2cnc(Nc3ccc(CN4CCN(C)CC4)cn3)nc12 (some centres unmarked) [Compound 140]
8 | > 8.00 | ≤ 7.00 | CC1CN(c2nc([C@@H](C)O)cc3cnc(Nc4ccc(CN5CCN(C)CC5)cn4)nc23)CC1C (some centres unmarked) [Compound 141]
9 | > 8.00 | ≤ 7.00 | C[C@@H](O)c1cc2cnc(Nc3ccc(CN4CCN(C)CC4)cn3)nc2c(N2CCC(C)(C)C2)n1 [Compound 142]
10 | > 8.00 | ≤ 7.00 | C[C@@H](O)c1cc2cnc(Nc3ccc(CN4CCN(C)CC4)cn3)nc2c(N2CCC(C(F)(F)F)CC2)n1 [Compound 144]
11 | 7.00 to 8.00 | ≤ 7.00 | C[C@@H](O)c1cc2cnc(Nc3ccc(CN4CCN(C)CC4)cn3)nc2c(N2CCOCC2)n1 [Compound 145]
12 | > 8.00 | ≤ 7.00 | CCC(O)c1cc2cnc(Nc3ccc(CN4CCN(C)CC4)cn3)nc2c(N2CCCCC2)n1 (centres unmarked) [Compound 146]
13 | > 8.00 | ≤ 7.00 | C[C@@H](O)c1cc2cnc(Nc3ccc(CN4CCN(C)CC4)cn3)nc2c(N2CCC(F)(F)CC2)n1 [Compound 150]
14 | > 8.00 | ≤ 7.00 | CC(O)c1cc2cnc(Nc3ccc(CN4CCN(C)CC4C)cn3)nc2c(N2CCCCC2)n1 (centres unmarked) [Compound 152]
15 | > 8.00 | ≤ 7.00 | C[C@@H](O)c1cc2cnc(Nc3ccc(CN4CCNCC4)cn3)nc2c(N2CCCCC2)n1 [Compound 155]
16 | > 8.00 | ≤ 7.00 | CC(O)c1cc2cnc(Nc3ccc(CN4CCN(C)CC4)cn3)nc2c(N2CC3CC3C2)n1 (centres unmarked) [Compound 157]
17 | > 8.00 | ≤ 7.00 | C[C@@H](O)c1cc2cnc(Nc3ccc(CN4CCN(C)CC4)cn3)nc2c(N2CCCCCC2)n1 [Compound 158]
18 | 7.00 to 8.00 | ≤ 7.00 | CC[C@@H](O)c1cc2cnc(Nc3ccc(CN4CCN(CCO)CC4)cn3)nc2c(N2CCCCC2)n1 [Compound 159]
19 | > 8.00 | ≤ 7.00 | CC[C@H](O)c1cc2cnc(Nc3ccc(CN4CCN(CCO)CC4)cn3)nc2c(N2CCCCC2)n1 [Compound 160]
20 | > 8.00 | ≤ 7.00 | C[C@@H](CO)c1cc2cnc(Nc3ccc(CN4CCN(CCO)CC4)cn3)nc2c(N2CCCCC2)n1 [Compound 167]
21 | 7.00 to 8.00 | ≤ 7.00 | C[C@@H](O)c1cc2cnc(Nc3ccc(CN4CCN(C)CC4)cn3)nc2c(N2CCC2)n1 [Compound 172]
22 | > 8.00 | 7.00 to 8.00 | C[C@@H](O)c1cc2cnc(Nc3ccc(CN4CCN(C)CC4)cn3)nc2c(N2CCCC2(C)C)n1 [Compound 173]
23 | > 8.00 | ≤ 7.00 | C[C@@H](O)c1cc2cnc(Nc3ccc(CN4CCN(C)CC4)cn3)nc2c(N2CCCOCC2)n1 [Compound 177]
24 | > 8.00 | ≤ 7.00 | C[C@@H](O)c1cc2cnc(Nc3ccc(CN4CCN(CCO)CC4)cn3)nc2c(N2CCCOCC2)n1 [Compound 178]
25 | > 8.00 | ≤ 7.00 | C[C@@H](O)c1cc2cnc(Nc3ccc(CN4CCN(C)CC4)cn3)nc2c(N2CCC[C@H](F)C2)n1 [Compound 179]
26 | > 8.00 | ≤ 7.00 | C[C@@H](O)c1cc2cnc(Nc3ccc(CN4CCN(CCO)CC4)cn3)nc2c(N2CCC[C@H](F)C2)n1 [Compound 180]

Continued, compound first:

Row | Compound | pIC50 (CDK4/cyclin D3) | pIC50 (CDK2/cyclin A2)
27 | C[C@@H](O)c1cc2cnc(Nc3ccc(N4CCN(C)CC4)nn3)nc2c(N2CCCCC2)n1 [Compound 123, (R)-1-(2-((6-(4-methylpiperazin-1-yl)pyridazin-3-yl)amino)-8-(piperidin-1-yl)pyrido[3,4-d]pyrimidin-6-yl)ethanol] | > 8.00 | ≤ 7.00
28 | C[C@@H](O)c1cc2cnc(Nc3ccc(N4CCN(C)CC4)nn3)nc2c(N2CCC(F)CC2)n1 [Compound 124] | > 8.00 | ≤ 7.00
29 | CO[C@H](C)c1cc2cnc(Nc3ccc(N4CCN(C)CC4)nn3)nc2c(N2CCC(F)CC2)n1 [Compound 125] | 7.00 to 8.00 | ≤ 7.00
30 | CO[C@H](C)c1cc2cnc(Nc3ccc(N4CCNCC4)nn3)nc2c(N2CCC(F)CC2)n1 [Compound 126] | > 8.00 | ≤ 7.00
31 | C[C@@H](O)c1cc2cnc(Nc3ccc(N4CCCNCC4=O)cn3)nc2c(N2CCCCC2)n1 [Compound 127] | > 8.00 | ≤ 7.00
32 | OCCN1CCN(Cc2ccc(Nc3ncc4cc(C(F)F)nc(N5CCCCC5)c4n3)nc2)CC1 [Compound 128] | > 8.00 | ≤ 7.00
33 | C[C@@H](O)c1cc2cnc(Nc3ccc4c(n3)CCN(CCCO)C4)nc2c(N2CCCCC2)n1 [Compound 130] | > 8.00 | ≤ 7.00
34 | C[C@@H](O)c1cc2cnc(Nc3ccc(O[C@H]4CCN(CCO)C[C@@H]4F)cn3)nc2c(N2CCCCC2)n1 [Compound 131] | 7.00 to 8.00 | ≤ 7.00
35 | C[C@@H](O)c1cc2cnc(Nc3ccc(O[C@@H]4CCN(CCO)C[C@@H]4F)cn3)nc2c(N2CCCCC2)n1 [Compound 132] | > 8.00 | ≤ 7.00
36 | OCCN1CCc2nc(Nc3ncc4cc(CO)nc(N5CCCCC5)c4n3)ccc2C1 [Compound 135] | > 8.00 | ≤ 7.00
37 | C[C@@H](O)c1cc2cnc(Nc3ccc(CN4CCN(C)CC4)cn3)nc2c(N2C3CCC2CC3)n1 [Compound 143] | > 8.00 | ≤ 7.00
38 | C[C@@H](O)c1cc2cnc(Nc3ccc4c(n3)CCN(C(=O)C3CCNCC3)C4)nc2c(N2CCCCC2)n1 [Compound 147] | > 8.00 | ≤ 7.00
39 | C[C@@H](O)c1cc2cnc(Nc3ccc4c(n3)CCN(C(=O)C3CCN(CCO)CC3)C4)nc2c(N2CCCCC2)n1 [Compound 148] | > 8.00 | ≤ 7.00
40 | C[C@@H](O)c1cc2cnc(Nc3ccc4c(n3)CCN(C(=O)C3CCN(C)CC3)C4)nc2c(N2CCCCC2)n1 [Compound 149] | > 8.00 | ≤ 7.00
41 | C[C@@H](O)c1cc2cnc(Nc3ccc(N4CCN(CCO)CCC4=O)cn3)nc2c(N2CCCCC2)n1 [Compound 151] | > 8.00 | ≤ 7.00
42 | C[C@@H](O)c1cc2cnc(Nc3ccc(CN4CCN(CCO)CC4)cn3)nc2c(C2=CCCCC2)n1 [Compound 156] | > 8.00 | ≤ 7.00
43 | C[C@@H](O)c1cc2cnc(Nc3ccc4c(n3)CCN(C3COC3)C4)nc2c(N2CCCCC2)n1 [Compound 161] | > 8.00 | ≤ 7.00
44 | C[C@@H](O)c1cc2cnc(Nc3ccc4c(n3)CCN(CCN3CCOCC3)C4)nc2c(N2CCCCC2)n1 [Compound 162] | > 8.00 | ≤ 7.00
45 | C[C@@H](O)c1cc2cnc(Nc3ccc4c(n3)CCN(S(=O)(=O)C3CCNCC3)C4)nc2c(N2CCCCC2)n1 [Compound 163, (R)-1-(8-(piperidin-1-yl)-2-((6-(piperidin-4-ylsulfonyl)-5,6,7,8-tetrahydro-1,6-naphthyridin-2-yl)amino)pyrido[3,4-d]pyrimidin-6-yl)ethanol] | > 8.00 | ≤ 7.00
46 | C[C@@H](O)c1cc2cnc(Nc3ccc(OC4CCNCC4)cn3)nc2c(N2CCCCC2)n1 [Compound 164] | > 8.00 | ≤ 7.00
47 | C[C@@H](O)c1cc2cnc(Nc3ccc(OC4CCN(CCO)CC4)cn3)nc2c(N2CCCCC2)n1 [Compound 165] | > 8.00 | ≤ 7.00
48 | C[C@H](CO)c1cc2cnc(Nc3ccc4c(n3)CCNC4)nc2c(N2CCCCC2)n1 [Compound 166] | 7.00 to 8.00 | ≤ 7.00
49 | C[C@@H](O)Cc1cc2cnc(Nc3ccc(CN4CCN(CCO)CC4)cn3)nc2c(N2CCCCC2)n1 [Compound 168] | 7.00 to 8.00 | ≤ 7.00
50 | C[C@@H](O)Cc1cc2cnc(Nc3ccc(N4CCNCC4=O)cn3)nc2c(N2CCCCC2)n1 [Compound 169] | 7.00 to 8.00 | ≤ 7.00
51 | C[C@@H](O)Cc1cc2cnc(Nc3ccc4c(n3)CCN(CCO)C4)nc2c(N2CCCCC2)n1 [Compound 170] | 7.00 to 8.00 | ≤ 7.00
52 | C[C@@H](CO)c1cc2cnc(Nc3ccc4c(n3)CCN(CCO)C4)nc2c(N2CCCCC2)n1 [Compound 171] | 7.00 to 8.00 | ≤ 7.00
53 | CC(O)c1cc2cnc(Nc3ccc(CN4CCN(C)CC4)cn3)nc2c(N2C3CCCC2CC3)n1 (centres unmarked) [Compound 174] | > 8.00 | ≤ 7.00
54 | C[C@@H](O)c1cc2cnc(Nc3ccc4c(n3)CCN(C3CNC3)C4)nc2c(N2CCCCC2)n1 [Compound 175] | > 8.00 | ≤ 7.00
55 | C[C@@H](O)c1cc2cnc(Nc3ccc4c(n3)CCN(C3CN(CCO)C3)C4)nc2c(N2CCCCC2)n1 [Compound 176] | > 8.00 | ≤ 7.00
